Assay results from patent US9139557B2, “Carboxamide compounds and their use as calpain inhibitors” (Abbott GmbH & Co. KG, priority 2006, dated 2015).

How the values were obtained:
Format in all cases: biochemical
[1] = molecular target: T1, cathepsin L (Homo sapiens, UniProt P07711); assay: Cathepsin L enzyme inhibition in vitro (kinetic fluorescence assay); conditions: Ki(cathepsin L)/Ki(calpain) ratio
T1 construct: cathepsin L—isolated from human liver; purchased Calbiochem 219402; host or cells: human liver (tissue isolate)
Outline: (§1)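 Kinetic fluorescence (ex 390/em 460 nm), RT. Calpain-I: 20 nM erythrocyte-derived, 100 μM Suc-Leu-Tyr-AMC, imidazole/CaCl2, pH 7.3. Cathepsins, pH 6.0 MES/EDTA/cysteine: B 0.25 nM liver, 100 μM Z-Phe-Arg-AMC; L 1 nM liver, 2 μM Z-Phe-Arg-AMC; S 0.5 nM recombinant, 20 μM Z-Val-Val-Arg-AMC. Cheng-Prusoff Ki, mean of 2–4 curves.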

[2] = molecular target: T2, cathepsin B (Homo sapiens, UniProt P07858); assay: Cathepsin B enzyme inhibition in vitro (kinetic fluorescence assay); conditions: Ki(cathepsin B)/Ki(calpain) ratio
T2 construct: cathepsin B—isolated from human liver; purchased Calbiochem 219362; host or cells: human liver (tissue isolate)
Outline: as §1

[3] = molecular target: T3, cathepsin K (Homo sapiens, UniProt P43235); assay: Cathepsin K enzyme inhibition in vitro (kinetic fluorescence assay); conditions: Ki(cathepsin K)/Ki(calpain) ratio
T3 construct: purchased Calbiochem 342001; host or cells: E. coli
T3 sequence (P43235 115-329): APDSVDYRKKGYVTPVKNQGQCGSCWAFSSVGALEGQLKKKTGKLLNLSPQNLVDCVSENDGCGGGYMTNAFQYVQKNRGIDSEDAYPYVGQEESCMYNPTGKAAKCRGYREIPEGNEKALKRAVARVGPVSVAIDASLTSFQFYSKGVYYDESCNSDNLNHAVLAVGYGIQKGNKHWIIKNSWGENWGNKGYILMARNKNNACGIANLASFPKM

[4] = molecular target: T4, cathepsin S (Homo sapiens, UniProt P25774); assay: Cathepsin S enzyme inhibition in vitro (kinetic fluorescence assay); conditions: Ki(cathepsin S)/Ki(calpain) ratio
T4 construct: purchased Calbiochem 219343; host or cells: E. coli
Outline: as §1

T1 sequence (P07711 114-333): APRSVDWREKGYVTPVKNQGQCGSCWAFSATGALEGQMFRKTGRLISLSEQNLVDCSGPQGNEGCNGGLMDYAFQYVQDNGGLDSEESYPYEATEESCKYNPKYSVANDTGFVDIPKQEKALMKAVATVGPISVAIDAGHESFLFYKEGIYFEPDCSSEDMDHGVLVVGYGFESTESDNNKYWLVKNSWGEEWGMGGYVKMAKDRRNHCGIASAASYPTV
T4 sequence (P25774 115-331): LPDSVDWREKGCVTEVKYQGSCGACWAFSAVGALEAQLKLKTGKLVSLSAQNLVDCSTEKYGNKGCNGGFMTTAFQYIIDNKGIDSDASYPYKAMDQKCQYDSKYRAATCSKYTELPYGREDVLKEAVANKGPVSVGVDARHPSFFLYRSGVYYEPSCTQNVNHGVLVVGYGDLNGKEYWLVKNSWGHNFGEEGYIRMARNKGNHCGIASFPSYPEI

Row | Compound | Sel cat. L [1] | Sel cat. B [2] | Sel cat. K [3] | Sel cat. S [4]
1 | NC(=O)C(=O)C(Cc1ccc(OC(F)(F)F)cc1)NC(=O)c1cccnc1-n1ccc(-c2cccc(C(F)(F)F)c2)n1 (stereo not drawn) [Example 134, N-[3-Amino-2,3-dioxo-1-({4-[(trifluoromethyl)oxy]phenyl}methyl)propyl]-2-{3-[3-(trifluoromethyl)phenyl]-1H-pyrazol-1-yl}pyridine-3-carboxamide] | + (+ means 30≦Ki(cathepsin L)/Ki(calpain)<50) | ++ (++ means a Ki(cathepsin B)/Ki(calpain) ratio of ≧30) | ++ (++ means a Ki(cathepsin K)/Ki(calpain) ratio of ≧30) | + (+ means 50≦Ki(cathepsin S)/Ki(calpain)<100)
2 | COc1ccc(CC(NC(=O)c2cccnc2-n2ccc(-c3cccc4ccccc34)n2)C(=O)C(N)=O)cc1 (stereo not drawn) [Example 135, N-(3-Amino-1-{[4-(methyloxy)phenyl]methyl}-2,3-dioxopropyl)-2-(3-naphthalen-1-yl-1H-pyrazol-1-yl)pyridine-3-carboxamide] | ++ (++ means a Ki(cathepsin L)/Ki(calpain) ratio of ≧50) | ++ (++ means a Ki(cathepsin B)/Ki(calpain) ratio of ≧30) | ++ (++ means a Ki(cathepsin K)/Ki(calpain) ratio of ≧30) | ++ (++ means a Ki(cathepsin S)/Ki(calpain) ratio of ≧100)
3 | COc1ccc(CC(NC(=O)c2cccnc2-n2ccc(-c3ccc(F)cc3OC)n2)C(=O)C(N)=O)cc1 (stereo not drawn) [Example 136, N-(3-Amino-1-{[4-(methyloxy)phenyl]methyl}-2,3-dioxopropyl)-2-{3-[4-fluoro-2-(methyloxy)phenyl]-1H-pyrazol-1-yl}pyridine-3-carboxamide] | ++ (++ means a Ki(cathepsin L)/Ki(calpain) ratio of ≧50) | ++ (++ means a Ki(cathepsin B)/Ki(calpain) ratio of ≧30) | ++ (++ means a Ki(cathepsin K)/Ki(calpain) ratio of ≧30) | ++ (++ means a Ki(cathepsin S)/Ki(calpain) ratio of ≧100)
4 | COc1ccc(CC(NC(=O)c2cccnc2-n2ccc(-c3ccc4c(c3)OC(F)(F)O4)n2)C(=O)C(N)=O)cc1 (stereo not drawn) [Example 137, N-(3-Amino-1-{[4-(methyloxy)phenyl]methyl}-2,3-dioxopropyl)-2-[3-(2,2-difluoro-1,3-benzodioxol-5-yl)-1H-pyrazol-1-yl]pyridine-3-carboxamide] | ++ (++ means a Ki(cathepsin L)/Ki(calpain) ratio of ≧50) | + (+ means 10≦Ki(cathepsin B)/Ki(calpain)<30) | + (+ means 10≦Ki(cathepsin K)/Ki(calpain)<30) | ++ (++ means a Ki(cathepsin S)/Ki(calpain) ratio of ≧100)
5 | COc1cc(Cl)ccc1-c1ccn(-c2ncccc2C(=O)NC(Cc2ccccc2)C(=O)C(N)=O)n1 (stereo not drawn) [Example 139, N-[3-Amino-2,3-dioxo-1-(phenylmethyl)propyl]-2-{3-[4-chloro-2-(methyloxy)phenyl]-1H-pyrazol-1-yl}pyridine-3-carboxamide] | ++ (++ means a Ki(cathepsin L)/Ki(calpain) ratio of ≧50) | + (+ means 10≦Ki(cathepsin B)/Ki(calpain)<30) | ++ (++ means a Ki(cathepsin K)/Ki(calpain) ratio of ≧30) | ++ (++ means a Ki(cathepsin S)/Ki(calpain) ratio of ≧100)
6 | NC(=O)C(=O)C(Cc1ccccc1)NC(=O)c1cccnc1-n1cc2c(n1)-c1cc(Cl)ccc1OC2 (stereo not drawn) [Example 140, N-[3-Amino-2,3-dioxo-1-(phenylmethyl)propyl]-2-(8-chlorochromeno[4,3-c]pyrazol-2(4H)-yl)pyridine-3-carboxamide] | ++ (++ means a Ki(cathepsin L)/Ki(calpain) ratio of ≧50) | + (+ means 10≦Ki(cathepsin B)/Ki(calpain)<30) | ++ (++ means a Ki(cathepsin K)/Ki(calpain) ratio of ≧30) | ++ (++ means a Ki(cathepsin S)/Ki(calpain) ratio of ≧100)
7 | COc1ccc2c(c1)OCc1cn(-c3ncccc3C(=O)NC(Cc3ccccc3)C(=O)C(N)=O)nc1-2 (stereo not drawn) [Example 142, N-[3-Amino-2,3-dioxo-1-(phenylmethyl)propyl]-2-[7-(methyloxy)chromeno[4,3-c]pyrazol-2(4H)-yl]pyridine-3-carboxamide] | ++ (++ means a Ki(cathepsin L)/Ki(calpain) ratio of ≧50) | + (+ means 10≦Ki(cathepsin B)/Ki(calpain)<30) | + (+ means 10≦Ki(cathepsin K)/Ki(calpain)<30) | ++ (++ means a Ki(cathepsin S)/Ki(calpain) ratio of ≧100)
8 | Cc1c(Cl)ccc2c1-c1nn(-c3ncccc3C(=O)NC(Cc3ccccc3)C(=O)C(N)=O)cc1CO2 (stereo not drawn) [Example 143, N-[3-Amino-2,3-dioxo-1-(phenylmethyl)propyl]-2-(8-chloro-9-methylchromeno[4,3-c]pyrazol-2(4H)-yl)pyridine-3-carboxamide] | ++ (++ means a Ki(cathepsin L)/Ki(calpain) ratio of ≧50) | ++ (++ means a Ki(cathepsin B)/Ki(calpain) ratio of ≧30) | ++ (++ means a Ki(cathepsin K)/Ki(calpain) ratio of ≧30) | ++ (++ means a Ki(cathepsin S)/Ki(calpain) ratio of ≧100)
9 | NC(=O)C(=O)C(Cc1ccc(F)cc1)NC(=O)c1cccnc1-n1ccc(-c2ccccc2OC(F)(F)F)n1 (stereo not drawn) [Example 152, N-{3-Amino-1-[(4-fluorophenyl)methyl]-2,3-dioxopropyl}-2-(3-{2-[(trifluoromethyl)oxy]phenyl}-1H-pyrazol-1-yl)pyridine-3-carboxamide] | ++ (++ means a Ki(cathepsin L)/Ki(calpain) ratio of ≧50) | ++ (++ means a Ki(cathepsin B)/Ki(calpain) ratio of ≧30) | ++ (++ means a Ki(cathepsin K)/Ki(calpain) ratio of ≧30) | ++ (++ means a Ki(cathepsin S)/Ki(calpain) ratio of ≧100)
10 | COc1ccc(CC(NC(=O)c2cccnc2-n2ccc(-c3cccc(Cl)c3Cl)n2)C(=O)C(N)=O)cc1 (stereo not drawn) [Example 153, N-(3-Amino-1-{[4-(methyloxy)phenyl]methyl}-2,3-dioxopropyl)-2-[3-(2,3-dichlorophenyl)-1H-pyrazol-1-yl]pyridine-3-carboxamide] | ++ (++ means a Ki(cathepsin L)/Ki(calpain) ratio of ≧50) | ++ (++ means a Ki(cathepsin B)/Ki(calpain) ratio of ≧30) | ++ (++ means a Ki(cathepsin K)/Ki(calpain) ratio of ≧30) | ++ (++ means a Ki(cathepsin S)/Ki(calpain) ratio of ≧100)
11 | NC(=O)C(=O)C(Cc1ccccc1)NC(=O)c1cccnc1-n1ccc(-c2cccc(C(F)(F)F)c2Cl)n1 (stereo not drawn) [Example 155, N-[3-Amino-2,3-dioxo-1-(phenylmethyl)propyl]-2-{3-[2-chloro-3-(trifluoromethyl)phenyl]-1H-pyrazol-1-yl}pyridine-3-carboxamide] | ++ (++ means a Ki(cathepsin L)/Ki(calpain) ratio of ≧50) | ++ (++ means a Ki(cathepsin B)/Ki(calpain) ratio of ≧30) | ++ (++ means a Ki(cathepsin K)/Ki(calpain) ratio of ≧30) | ++ (++ means a Ki(cathepsin S)/Ki(calpain) ratio of ≧100)
12 | COc1ccc(CC(NC(=O)c2cccnc2-n2ccc(-c3cccc(F)c3Cl)n2)C(=O)C(N)=O)cc1 (stereo not drawn) [Example 157, N-(3-Amino-1-{[4-(methyloxy)phenyl]methyl}-2,3-dioxopropyl)-2-[3-(2-chloro-3-fluorophenyl)-1H-pyrazol-1-yl]pyridine-3-carboxamide] | ++ (++ means a Ki(cathepsin L)/Ki(calpain) ratio of ≧50) | ++ (++ means a Ki(cathepsin B)/Ki(calpain) ratio of ≧30) | ++ (++ means a Ki(cathepsin K)/Ki(calpain) ratio of ≧30) | ++ (++ means a Ki(cathepsin S)/Ki(calpain) ratio of ≧100)
13 | CS(=O)(=O)Nc1cnc(-n2ccc(-c3ccccc3)n2)c(C(=O)NC(Cc2ccccc2)C(=O)C(N)=O)c1 (stereo not drawn) [Example 158, N-[3-Amino-2,3-dioxo-1-(phenylmethyl)propyl]-5-[(methylsulfonyl)amino]-2-(3-phenyl-1H-pyrazol-1-yl)pyridine-3-carboxamide] | ++ (++ means a Ki(cathepsin L)/Ki(calpain) ratio of ≧50) | ++ (++ means a Ki(cathepsin B)/Ki(calpain) ratio of ≧30) | ++ (++ means a Ki(cathepsin K)/Ki(calpain) ratio of ≧30) | ++ (++ means a Ki(cathepsin S)/Ki(calpain) ratio of ≧100)
14 | NC(=O)C(=O)C(Cc1ccccc1)NC(=O)c1cccnc1-n1ccc(-c2cccc3cccnc23)n1 (stereo not drawn) [Example 160, N-[3-amino-2,3-dioxo-1-(phenylmethyl)propyl]-2-(3-quinolin-8-yl-1H-pyrazol-1-yl)pyridine-3-carboxamide] | ++ (++ means a Ki(cathepsin L)/Ki(calpain) ratio of ≧50) | ++ (++ means a Ki(cathepsin B)/Ki(calpain) ratio of ≧30) | ++ (++ means a Ki(cathepsin K)/Ki(calpain) ratio of ≧30) | ++ (++ means a Ki(cathepsin S)/Ki(calpain) ratio of ≧100)
15 | NC(=O)C(=O)C(Cc1cccc(F)c1)NC(=O)c1cccnc1-n1ccc(-c2ccccc2OC(F)(F)F)n1 (stereo not drawn) [Example 162, N-{3-Amino-1-[(3-fluorophenyl)methyl]-2,3-dioxopropyl}-2-(3-{2-[(trifluoromethyl)oxy]phenyl}-1H-pyrazol-1-yl)pyridine-3-carboxamide] | ++ (++ means a Ki(cathepsin L)/Ki(calpain) ratio of ≧50) | ++ (++ means a Ki(cathepsin B)/Ki(calpain) ratio of ≧30) | ++ (++ means a Ki(cathepsin K)/Ki(calpain) ratio of ≧30) | ++ (++ means a Ki(cathepsin S)/Ki(calpain) ratio of ≧100)
